Source: patent US20100331297A1, “MODULATION OF PROTEIN TRAFFICKING” (FOLDRX PHARMACEUTICALS, INC., priority 2007, published 2010)

What was measured:
[1] = target: T1, ΔF508 CFTR (Homo sapiens, UniProt P13569, DEL508-508); assay: Corrector activity, YFP halide (iodide) quenching assay in FRT cells expressing ΔF508 CFTR; format: cell-based; design: expressed in transfected cells; host or cells: Fischer rat thyroid (FRT) cells; conditions: FRT cells ΔF508 CFTR/YFP, 24 hours with compound at 37° C., forskolin and genistein; read-out: Corrector EC50
How it was run: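 FRT cells co-expressing ΔF508 CFTR and halide-sensitive YFP were incubated 24 h at 37° C with compounds, then stimulated 30 min at 37° C in PBS with forskolin and genistein. Endpoint fluorescence after iodide injection was normalized to initial reading; EC50 from 4-parameter fit with bottom constrained to DMSO control.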

[2] = target: T1, ΔF508 CFTR; assay: Potentiator activity, YFP halide (iodide) quenching assay in FRT cells expressing ΔF508 CFTR, 27° C. pre-incubation; format: cell-based; design: expressed in transfected cells; host or cells: Fischer rat thyroid (FRT) cells; conditions: FRT cells ΔF508 CFTR/YFP, 24 hours at 27° C., compound with forskolin 30 min
How it was run: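 FRT cells stably co-expressing ΔF508 CFTR and halide-sensitive YFP, grown 24 h at 37° C. then 24 h at 27° C. to raise surface CFTR. Compounds in PBS with forskolin, 30 min at 37° C.; iodide injected and YFP quenching (ex 485/em 530 nm) followed. EC50 from normalized endpoint fluorescence.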

T1 sequence (P13569 with tags, fused parts or gaps DEL508-508): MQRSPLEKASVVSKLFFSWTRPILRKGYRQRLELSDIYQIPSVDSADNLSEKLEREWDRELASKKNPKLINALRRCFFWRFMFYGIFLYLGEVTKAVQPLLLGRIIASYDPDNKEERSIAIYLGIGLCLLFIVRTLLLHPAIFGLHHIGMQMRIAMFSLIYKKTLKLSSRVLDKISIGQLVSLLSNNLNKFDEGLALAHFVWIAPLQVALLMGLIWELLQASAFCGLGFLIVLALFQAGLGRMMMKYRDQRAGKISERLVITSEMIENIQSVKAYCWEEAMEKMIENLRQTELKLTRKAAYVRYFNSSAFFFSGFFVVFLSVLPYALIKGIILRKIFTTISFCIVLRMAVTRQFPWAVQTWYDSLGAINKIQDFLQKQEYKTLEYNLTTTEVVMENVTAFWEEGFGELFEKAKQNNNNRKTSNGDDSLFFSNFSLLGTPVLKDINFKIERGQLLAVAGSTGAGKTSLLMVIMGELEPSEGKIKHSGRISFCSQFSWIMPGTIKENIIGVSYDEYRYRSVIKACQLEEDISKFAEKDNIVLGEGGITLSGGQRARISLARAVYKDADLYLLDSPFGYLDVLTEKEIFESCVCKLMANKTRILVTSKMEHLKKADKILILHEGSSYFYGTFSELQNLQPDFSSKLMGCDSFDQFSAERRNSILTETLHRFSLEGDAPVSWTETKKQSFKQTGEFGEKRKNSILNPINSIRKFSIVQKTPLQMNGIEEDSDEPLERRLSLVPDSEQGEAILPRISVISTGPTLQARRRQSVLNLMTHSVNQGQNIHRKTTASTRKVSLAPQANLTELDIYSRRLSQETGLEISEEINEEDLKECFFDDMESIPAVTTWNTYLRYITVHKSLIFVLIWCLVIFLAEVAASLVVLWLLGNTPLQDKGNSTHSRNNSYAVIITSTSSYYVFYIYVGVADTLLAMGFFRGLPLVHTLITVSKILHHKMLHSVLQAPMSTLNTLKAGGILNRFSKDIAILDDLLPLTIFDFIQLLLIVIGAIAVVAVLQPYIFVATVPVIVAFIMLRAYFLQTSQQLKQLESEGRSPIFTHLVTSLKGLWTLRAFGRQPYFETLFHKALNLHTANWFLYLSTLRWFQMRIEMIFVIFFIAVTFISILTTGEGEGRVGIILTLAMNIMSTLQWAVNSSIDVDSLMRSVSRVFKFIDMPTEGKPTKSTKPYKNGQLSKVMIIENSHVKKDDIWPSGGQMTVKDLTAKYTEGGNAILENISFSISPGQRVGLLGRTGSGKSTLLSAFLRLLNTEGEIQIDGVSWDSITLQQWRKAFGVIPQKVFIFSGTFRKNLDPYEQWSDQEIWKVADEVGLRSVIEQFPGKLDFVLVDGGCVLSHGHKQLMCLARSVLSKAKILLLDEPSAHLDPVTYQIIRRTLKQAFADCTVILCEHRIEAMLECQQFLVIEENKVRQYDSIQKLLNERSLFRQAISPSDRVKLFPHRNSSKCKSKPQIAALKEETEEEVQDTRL

SMILES | EC50 [1] [µM] | EC50 [2] [µM]
CCn1nc([S+]([O-])c2cccc(O)c2)c2c(N)ncnc21 (stereo not shown) [compound 285] | > 15 | > 15
CCn1nc(Nc2cccc(Cl)c2)c2c(N)ncnc21 [compound 286] | > 15 | > 15
Nc1ncnc2c1c(Oc1cccc(Cl)c1)nn2-c1ncccn1 [compound 287] | > 15 | > 15
Nc1ncnc2c1c(-c1ccc(Cl)cc1)nn2-c1ccc([N+](=O)[O-])cn1 [compound 288] | > 15 | > 15
CCn1nc([S+]([O-])c2ccc(C)cc2)c2c(N)ncnc21 (stereo not shown) [compound 291] | > 15 | > 15
CCn1nc([S+]([O-])c2ccc(F)cc2F)c2c(N)ncnc21 (stereo not shown) [compound 292] | > 15 | > 15
O=[N+]([O-])c1ccc(Nc2ncnc3[nH]nc(-c4ccc(Cl)cc4)c23)nc1 [compound 293] | > 15 | > 15
CCOC(=O)N1CCC(n2nc(-c3ccc(Cl)cc3)c3c(N)ncnc32)CC1 [compound 303] | > 15 | > 15
CC(=O)N1CC(n2cc(Cc3cccc4ccccc34)c3c(N)ncnc32)C1 [compound 306] | > 15 | > 15
Nc1ncnc2c1c(-c1ccc(Cl)cc1)nn2[C@@H]1CCOC1 [compound 307] | > 15 | > 15
COc1nn(C(C)(C)C)c2ncnc(N)c12 [compound 312, 1-tert-butyl-3-methoxy-1H-pyrazolo[3,4-d]pyrimidin-4-ylamine] | > 15 | 5 to 10
CCn1nc(Nc2ccc3c(c2)OC(F)(F)O3)c2c(N)ncnc21 [compound 313] | > 15 | 2 to 5
CN(c1ccccc1)c1nn(C2CCC2)c2ncnc(N)c12 [compound 314] | > 15 | > 15
CCn1nc(N(C)c2cccc(Cl)c2)c2c(N)ncnc21 [compound 317] | > 15 | > 15
Nc1ncnc2c1c(-c1ccc(Cl)cc1)nn2[C@H]1CCOC1 [compound 318] | > 15 | > 15
CCNC(=O)N1CCC(n2nc(-c3ccc(Cl)cc3)c3c(N)ncnc32)CC1 [compound 319] | > 15 | > 15
CCn1nc(Sc2cccc(C(F)(F)F)c2)c2c(N)ncnc21 [compound 323] | > 15 | < 2
CCn1nc(Sc2ccccn2)c2c(N)ncnc21 [compound 324] | > 15 | > 15
CC(C)(C)n1nc(O)c2c(N)ncnc21 [compound 325, 4-amino-1-tert-butyl-1H-pyrazolo[3,4-d]pyrimidin-3-ol] | > 15 | > 15
CC(C)(C)n1nc(Oc2ncccn2)c2c(N)ncnc21 [compound 326] | > 15 | > 15
Nc1ncnc2c1c(-c1ccc(Cl)cc1)cn2Cc1ccccc1 [compound 327] | > 15 | < 2
CCn1cc(-c2ccc(Cl)cc2)c2c(NC(=O)NC(C)C)ncnc21 [compound 328] | > 15 | > 15
CC(C)(C)n1nc([S+]([O-])c2ccccn2)c2c(N)ncnc21 (stereo not shown) [compound 329] | > 15 | > 15
CC(C)(C)n1nc(Oc2ccccn2)c2c(N)ncnc21 [compound 330] | > 15 | > 15
CC(C)(C)n1nc(Oc2ccccc2[N+](=O)[O-])c2c(N)ncnc21 [compound 331] | > 15 | 2 to 5
CC(=O)C1CC(n2nc(Sc3ccccc3)c3c(N)ncnc32)C1 (stereo not shown) [compound 334] | > 15 | > 15
CC(C)N1CCC(n2nc(-c3ccc(Cl)cc3)c3c(N)ncnc32)CC1 [compound 342] | > 15 | > 15
CC(C)(C)OC(=O)n1nc(Sc2cccc(Cl)c2)c2c(N)ncnc21 [compound 343] | > 15 | < 2
CC(=O)N1CC(n2nc(Sc3cccc(Cl)c3)c3c(N)ncnc32)C1 [compound 344] | > 15 | > 15
CCOC(=O)N1CC(n2nc(Sc3ccccc3)c3c(N)ncnc32)C1 [compound 347] | > 15 | > 15

Other lines, results leading:

EC50 [1] [µM] | EC50 [2] [µM] | SMILES
> 15 | > 15 | CCn1nc([S+]([O-])c2cccc(Cl)c2)c2c(N)ncnc21 (stereo not shown) [compound 279]
> 15 | > 15 | CCn1nc(Sc2cccc(OC)c2)c2c(N)ncnc21 [compound 280]
> 15 | > 15 | CCn1nc(Sc2cccc(OC(F)(F)F)c2)c2c(N)ncnc21 [compound 281]
> 15 | > 15 | CCn1cc(-c2ccc(Cl)cc2)c2c(N(C)C(C)=O)ncnc21 [compound 282]
> 15 | > 15 | CCn1nc([S+]([O-])c2cc(F)cc(F)c2)c2c(N)ncnc21 (stereo not shown) [compound 283]
> 15 | > 15 | CCn1nc([S+]([O-])c2cccc(C(F)(F)F)c2)c2c(N)ncnc21 (stereo not shown) [compound 284]
5 to 10 | 2 to 5 | CCC(C)Cn1cc(-c2ccc(Cl)cc2)c2c(N)ncnc21 (stereo not shown) [compound 289]
< 2 | 2 to 5 | Nc1ncnc2c1c(-c1ccc(Cl)cc1)cn2CC(F)F [compound 290]
< 2 | > 15 | CCn1cc(-c2ccc(Cl)cc2)c2c(NC(=O)c3ccc(C)cc3)ncnc21 [compound 298]
< 2 | > 15 | CCn1cc(-c2ccc(Cl)cc2)c2c(NC(=O)c3ccc(F)cc3)ncnc21 [compound 299]
5 to 10 | > 15 | CC(C)OC(=O)Nc1ncnc2c1c(-c1ccc(Cl)cc1)nn2C(C)(C)C [compound 300]
< 2 | > 15 | CC(=O)N1CCC(n2nc(-c3ccc(Cl)cc3)c3c(N)ncnc32)CC1 [compound 302]
5 to 10 | > 15 | CCn1nc(Nc2cccc3ccccc23)c2c(N)ncnc21 [compound 308]
2 to 5 | > 15 | Nc1ncnc2c1c(-c1ccc(Cl)cc1)cn2CC(O)CF (stereo not shown) [compound 309]
< 2 | > 15 | Cn1cc(-c2ccc(Cl)cc2)c2c(N)ncnc21 [compound 310]
2 to 5 | 5 to 10 | C=CCn1cc(-c2ccc(Cl)cc2)c2c(N)ncnc21 [compound 311]
< 2 | 2 to 5 | CC(C)n1cc(-c2ccc(Cl)cc2)c2c(N)ncnc21 [compound 315]
5 to 10 | 2 to 5 | CC(C)(C)Cn1cc(-c2ccc(Cl)cc2)c2c(N)ncnc21 [compound 316]
< 2 | < 2 | CC(C)(C)n1cc(-c2ccc(Cl)cc2)c2c(NC(=O)C3CCCC3)ncnc21 [compound 321]
2 to 5 | 2 to 5 | CCn1cc(-c2ccc(Cl)cc2)c2c(NC(=O)C(C)(C)C)ncnc21 [compound 322]
5 to 10 | > 15 | CC(C)(C)n1nc(-c2ccc(Cl)cc2)c2c(NC(=O)O[C@@H]3CCOC3)ncnc21 [compound 335]
< 2 | 5 to 10 | CCn1cc(-c2ccc(Cl)cc2)c2c(NC(=O)C(C)C)ncnc21 [compound 336]
2 to 5 | 2 to 5 | CC(C)(C)C(=O)Nc1ncnc2c1c(-c1ccc(Cl)cc1)cn2C(C)(C)C [compound 349]
